Legend:
blackgrass = assay: Test B pre/postemergence blackgrass; format: in vivo, Alopecurus myosuroides
In short: (§1)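 Response is a visual 0-to-10 score relative to untreated plants, where 0 means no effect and 10 means complete control, taken twelve to sixteen days after application. Treatments went onto soil at planting and onto foliage of 1- to 4-leaf plants, using a surfactant-containing non-phytotoxic solvent.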

surinam grass = assay: Test B pre/postemergence surinam grass; format: in vivo, Brachiaria decumbens
In short: as §1

soybean = assay: Test B pre/postemergence soybean; format: in vivo, Glycine max
In short: as §1

bedstraw = assay: Test B pre/postemergence bedstraw; format: in vivo, Galium aparine; settings: Postemergence
In short: as §1

wheat = assay: Test B pre/postemergence wheat; format: in vivo, Triticum aestivum
In short: as §1

purple nutsedge = assay: Test B pre/postemergence purple nutsedge; format: in vivo, Cyperus rotundus
In short: as §1

corn = assay: Test B pre/postemergence corn; format: in vivo, Zea mays
In short: as §1

crabgrass = assay: Test B pre/postemergence crabgrass; format: in vivo, Digitaria sanguinalis
In short: as §1

sugar beet = assay: Test B pre/postemergence sugar beet; format: in vivo, Beta vulgaris
In short: as §1

cocklebur = assay: Test B pre/postemergence cocklebur; format: in vivo, Xanthium strumarium
In short: as §1

morningglory = assay: Test B pre/postemergence morningglory; format: in vivo, Ipomoea hederacea
In short: as §1

smallflower flatsedge = assay: Test B flood test smallflower flatsedge; format: in vivo, Cyperus difformis
In short: (§2)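 Flood test on plants grown to the 2-leaf stage; treated plants kept in greenhouse twelve to sixteen days, then visually rated against controls on a 0 (no effect) to 10 (complete control) scale.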

giant foxtail = assay: Test B pre/postemergence giant foxtail; format: in vivo, Setaria faberii
In short: as §1

wild oat = assay: Test B pre/postemergence wild oat; format: in vivo, Avena fatua
In short: as §1

velvetleaf = assay: Test B pre/postemergence velvetleaf; format: in vivo, Abutilon theophrasti
In short: as §1

duck salad = assay: Test B flood test duck salad; format: in vivo, Heteranthera limosa
In short: as §2

rice = assay: Test B flood test rice; format: in vivo, Oryza sativa
In short: as §2

rape = assay: Test B pre/postemergence rape; format: in vivo, Brassica napus
In short: as §1

bamyardgrass = assay: Test B flood test barnyardgrass; format: in vivo, Echinochloa crus-galli
In short: as §2

pigweed = assay: Test B pre/postemergence pigweed; format: in vivo, Amaranthus retroflexus
In short: as §1

[1] = Postemergence, Rate 62 g/ha, scale 0 to 10, 0 is no effect, 10 is complete control
[2] = Postemergence, Rate 125 g/ha, scale of 0 to 10 where 0 is no effect and 10 is complete control
[3] = Postemergence, Rate 250 g/ha, scale of 0 to 10, 0 is no effect, 10 is complete control
[4] = Postemergence, Rate 500 g/ha, scale of 0 to 10 where 0 is no effect and 10 is complete control
[5] = Preemergence, Rate 62 g/ha, scale 0 to 10 (0 no effect, 10 complete control)
[6] = Preemergence, Rate 125 g/ha, scale of 0 to 10 where 0 is no effect and 10 is complete control
[7] = Preemergence, Rate 500 g/ha, scale of 0 to 10 where 0 is no effect and 10 is complete control
[8] = Rate 62 g/ha, flood test species, Pre-emergence, visual evaluation after twelve to sixteen days
[9] = Rate 125 g/ha, under heading Pre-emergence, flood test species, visual evaluation after twelve to sixteen days
[10] = Rate 250 g/ha, Pre-emergence (flood test species), scale 0 to 10, 0 is no effect, 10 is complete control
[11] = Rate 500 g/ha, Pre-emergence section of Table B, 0 to 10 scale (0 no effect, 10 complete control)

SMILES: C=C(Cn1c(=O)on(C(=O)N(c2ccccc2)C(C)C)c1=O)c1ccc(F)cc1 [Compound 606]
- Plant response rating, Blackgrass (blackgrass; [1]): 0
- Plant response rating, Blackgrass (blackgrass; [2]): 0
- Blackgrass plant response rating (blackgrass; [3]): 0
- Plant response rating, Blackgrass (blackgrass; [4]): 1
- Blackgrass plant response rating (blackgrass; [5]): 0
- Blackgrass plant response rating (blackgrass; [6]): 0
- Blackgrass plant response rating (0 to 10 scale) (blackgrass; Preemergence, Rate 250 g/ha): 0
- Blackgrass plant response rating (blackgrass; [7]): 3
- Plant response rating, B. signalgrass (surinam grass; [1]): 0
- Plant response rating, B. signalgrass (surinam grass; [2]): 0
- B. signalgrass plant response rating (surinam grass; [3]): 0
- Plant response rating, B. signalgrass (surinam grass; [4]): 0
- B. signalgrass plant response rating (surinam grass; [5]): 0
- B. signalgrass plant response rating (surinam grass; [6]): 0
- B. signalgrass plant response rating (0 to 10 scale, 0 is no effect, 10 is complete control) (surinam grass; Preemergence, Rate 250 g/ha): 0
- B. signalgrass plant response rating (surinam grass; [7]): 0
- Plant response rating, Soybean (soybean; [1]): 1
- Plant response rating, Soybean (soybean; [2]): 2
- Soybean plant response rating (soybean; [3]): 2
- Soybean plant response rating (soybean; [5]): 0
- Soybean plant response rating (soybean; [6]): 0
- Plant response rating, Soybean (soybean; [7]): 0
- Plant response rating, Bedstraw (bedstraw; Rate 62 g/ha, scale 0 to 10, 0 is no effect, 10 is complete control): 0
- Bedstraw plant response rating (bedstraw; Rate 250 g/ha, scale of 0 to 10, 0 is no effect, 10 is complete control): 0
- Plant response rating, Bedstraw (bedstraw; Rate 500 g/ha, scale of 0 to 10 where 0 is no effect and 10 is complete control): 0
- Plant response rating, Wheat (wheat; [1]): 0
- Plant response rating, Wheat (wheat; [2]): 0
- Wheat plant response rating (wheat; [3]): 0
- Plant response rating, Wheat (wheat; [4]): 0
- Wheat plant response rating (wheat; [5]): 0
- Wheat plant response rating (wheat; [6]): 0
- Plant response rating, Wheat (wheat; [7]): 0
- Plant response rating, Nutsedge (purple nutsedge; [1]): 0
- Plant response rating, Nutsedge (purple nutsedge; [2]): 0
- Plant response rating, Nutsedge (purple nutsedge; [4]): 0
- Nutsedge plant response rating (purple nutsedge; [5]): 0
- Nutsedge plant response rating (purple nutsedge; [6]): 0
- Plant response rating, Nutsedge (purple nutsedge; [7]): 0
- Plant response rating, Corn (corn; [1]): 0
- Plant response rating, Corn (corn; [2]): 0
- Corn plant response rating (corn; [3]): 0
- Plant response rating, Corn (corn; [4]): 0
- Corn plant response rating (corn; [5]): 0
- Corn plant response rating (corn; [6]): 0
- Corn plant response rating (0 to 10 scale) (corn; Preemergence, Rate 250 g/ha): 0
- Plant response rating, Corn (corn; [7]): 0
- Plant response rating, Crabgrass (crabgrass; [1]): 0
- Plant response rating, Crabgrass (crabgrass; [2]): 3
- Crabgrass plant response rating (crabgrass; [3]): 3
- Crabgrass plant response rating (crabgrass; [5]): 0
- Plant response rating, Crabgrass (crabgrass; [7]): 8
- Plant response rating, Sugarbeets (sugar beet; [1]): 0
- Plant response rating, Sugarbeets (sugar beet; [2]): 0
- Sugarbeets plant response rating (sugar beet; [3]): 0
- Plant response rating, Sugarbeets (sugar beet; [4]): 0
- Sugarbeets plant response rating (sugar beet; [5]): 0
- Sugarbeets plant response rating (sugar beet; [6]): 0
- Plant response rating, Sugarbeets (sugar beet; [7]): 0
- Plant response rating, Cocklebur (cocklebur; [1]): 0
- Plant response rating, Cocklebur (cocklebur; [2]): 0
- Cocklebur plant response rating (cocklebur; [3]): 0
- Plant response rating, Cocklebur (cocklebur; [4]): 0
- Cocklebur plant response rating (cocklebur; [5]): 0
- Cocklebur plant response rating (cocklebur; [6]): 0
- Cocklebur plant response rating (0 to 10 scale) (cocklebur; Preemergence, Rate 250 g/ha): 0
- Plant response rating, Cocklebur (cocklebur; [7]): 0
- Plant response rating, Morningglory (morningglory; [1]): 6
- Plant response rating, Morningglory (morningglory; [2]): 10
- Morningglory plant response rating (morningglory; [3]): 10
- Morningglory plant response rating (morningglory; [5]): 0
- Morningglory plant response rating (morningglory; [6]): 0
- Plant response rating, Morningglory (morningglory; [7]): 0
- Plant response rating, S. Flatsedge (0 to 10 scale, 0 is no effect, 10 is complete control) (smallflower flatsedge; [8]): 0
- S. Flatsedge plant response rating (0 to 10 scale, 0 is no effect, 10 is complete control) (smallflower flatsedge; [9]): 0
- S. Flatsedge plant response rating (smallflower flatsedge; [10]): 0
- S. Flatsedge plant response rating (smallflower flatsedge; [11]): 0
- Plant response rating, Giant foxtail (giant foxtail; [1]): 0
- Plant response rating, Giant foxtail (giant foxtail; [2]): 0
- Giant foxtail plant response rating (giant foxtail; [3]): 0
- Plant response rating, Giant foxtail (giant foxtail; [4]): 3
- Giant foxtail plant response rating (giant foxtail; [5]): 0
- Giant foxtail plant response rating (giant foxtail; [6]): 6
- Plant response rating, Giant foxtail (giant foxtail; [7]): 9
- Plant response rating, Wild oats (wild oat; [1]): 0
- Plant response rating, Wild oats (wild oat; [2]): 0
- Wild oats plant response rating (wild oat; [3]): 0
- Plant response rating, Wild oats (wild oat; [4]): 0
- Wild oats plant response rating (wild oat; [5]): 0
- Wild oats plant response rating (wild oat; [6]): 0
- Plant response rating, Wild oats (wild oat; [7]): 3
- Plant response rating, Velvetleaf (velvetleaf; [1]): 0
- Plant response rating, Velvetleaf (velvetleaf; [2]): 0
- Velvetleaf plant response rating (velvetleaf; [3]): 0
- Plant response rating, Velvetleaf (velvetleaf; [4]): 3
- Velvetleaf plant response rating (velvetleaf; [5]): 0
- Velvetleaf plant response rating (velvetleaf; [6]): 0
- Plant response rating, Velvetleaf (velvetleaf; [7]): 0
- Plant response rating, Ducksalad (0 to 10 scale, 0 is no effect, 10 is complete control) (duck salad; [8]): 0
- Ducksalad plant response rating (0 to 10 scale, 0 is no effect, 10 is complete control) (duck salad; [9]): 0
- Ducksalad plant response rating (duck salad; [10]): 0
- Ducksalad plant response rating (duck salad; [11]): 0
- Plant response rating, Rice (0 to 10 scale, 0 is no effect, 10 is complete control) (rice; [8]): 0
- Rice plant response rating (0 to 10 scale, 0 is no effect, 10 is complete control) (rice; [9]): 0
- Rice plant response rating (rice; [10]): 0
- Rice plant response rating (rice; [11]): 0
- Plant response rating, Rape (rape; [2]): 2
- Rape plant response rating (rape; [3]): 3
- Plant response rating, Rape (rape; [4]): 4
- Rape plant response rating (rape; [5]): 0
- Rape plant response rating (rape; [6]): 0
- Plant response rating, Rape (rape; [7]): 0
- Plant response rating, Barnyardgrass (0 to 10 scale, 0 is no effect, 10 is complete control) (bamyardgrass; [8]): 0
- Barnyardgrass plant response rating (0 to 10 scale, 0 is no effect, 10 is complete control) (bamyardgrass; [9]): 0
- Barnyardgrass plant response rating (bamyardgrass; [10]): 0
- Barnyardgrass plant response rating (bamyardgrass; [11]): 0
- Plant response rating, Redroot pigweed (pigweed; [1]): 0
- Plant response rating, Redroot pigweed (pigweed; [2]): 0
- Redroot pigweed plant response rating (pigweed; [3]): 1
- Plant response rating, Redroot pigweed (pigweed; [4]): 2
- Redroot pigweed plant response rating (pigweed; [5]): 0
- Redroot pigweed plant response rating (pigweed; [6]): 0
- Plant response rating, Redroot pigweed (pigweed; [7]): 0

Source: patent publication US6737383B1, “Herbicidal oxadiazolidines” (priority 1999, dated 2004)
